From patent publication US20240352402A1, “ENGINEERED BACTERIA FOR BIOSYNTHESIS OF PEPTIDE-BASED QUORUM SENSING INHIBITORS” (Wisconsin Alumni Research Foundation, priority 2023, published 2024) come the findings set out here.

The test system of the test is S. aureus agr quorum sensing system (agr specificity groups I, II, III and IV). Nature of the test: Staphylococcus aureus agr reporter (antagonism) assay with pDB59 YFP reporter strains. Particulars: high concentrations, WT supernatant as vehicle control. The test is classed as cell-based. The method, then: Supernatant samples were lyophilized in a FreeZone Freeze Dryer (Labconco). Fluorescence (EX 500 nm/EM 540 nm) and OD600 were read on a Synergy™ 2 plater reader (BioTek). Data was analyzed using Prism 9 software (GraphPad by Dotmatics).
In both P. megaterium and B. subtilis strains produced in Example 1, AIP production was induced by diluting overnight cultures 1:100 in LB containing 1% xylose. After 8 hours the cultures were centrifuged, and the supernatant was purified with a 0.22 μm filter. The supernatant was then lyophilized and reconstituted in sterile milli-Q water at 10× the original concentration.
Groups I-IV S. aureus strains containing the pDB59 plasmid were used to conduct agr antagonism assays. Assays were conducted as previously described,^1 with the following adjustments: 10×WT P. megaterium or B. subtilis supernatant was used as a vehicle control instead of DMSO and 20 μl of sample/vehicle control and 180 μl of 1:50 overnight S. aureus in brain heart infusion (BHI) growth medium was added to each well for inducible strains P. megaterium (FIG. 2) and B. subtilis (FIG. 3) from Example 1 and constitutive strain B. subtilis (FIG. 5) from Example 2.

For the substance AIP-III D4A, the “inhibition of agr activity in reporter assay” value by setting is: (lyophilized B. subtilis supernatant (10x), n=9, FIG. 3) “inhibit agr”; (lyophilized P. megaterium supernatant (10x), n=3, FIG. 2) “inhibit agr”.
